Patent publication US7700592B2, “α2C adrenoreceptor agonists” (Schering Corporation, priority 2005, dated 2010)

Target: T1, α2C receptor (Homo sapiens, UniProt P18825)
T1 sequence (P18825 1-462): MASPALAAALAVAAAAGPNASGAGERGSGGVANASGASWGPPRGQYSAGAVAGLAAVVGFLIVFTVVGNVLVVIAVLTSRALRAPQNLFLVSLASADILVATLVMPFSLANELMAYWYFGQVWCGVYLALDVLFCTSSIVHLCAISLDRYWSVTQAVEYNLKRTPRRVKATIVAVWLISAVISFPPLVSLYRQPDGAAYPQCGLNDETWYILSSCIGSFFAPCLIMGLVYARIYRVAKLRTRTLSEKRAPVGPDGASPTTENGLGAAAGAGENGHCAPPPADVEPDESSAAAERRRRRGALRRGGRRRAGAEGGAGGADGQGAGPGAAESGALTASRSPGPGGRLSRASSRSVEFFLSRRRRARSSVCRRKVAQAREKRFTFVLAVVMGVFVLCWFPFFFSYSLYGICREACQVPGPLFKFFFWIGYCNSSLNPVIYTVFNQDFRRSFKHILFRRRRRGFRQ
Test: GTPγS assay, efficacy agonist activity (Emax) for α2C
Assay type: biochemical
Conditions: active agonist = efficacy at α2C ≧30% Emax; functionally selective = additionally efficacy at α2A ≦30% Emax (GTPγS assay)
How it was run: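 Emax measured in a [^35S]GTPγS functional assay at the human α2C adrenoceptor, following Umland et al. An efficacy of ≧30% Emax defines an active α2C agonist.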

Structure (SMILES)	Efficacy agonist activity (Emax, GTPγS assay) for α2C: evaluated as active or functionally selective agonist
CCN(c1ccc2c(c1)N(Cc1c[nH]cn1)CCO2)c1nccs1 [Compound 327]	active or functionally selective agonists of the α2C receptor subtype
CC#CCOC(=O)N(CC)c1ccc2c(c1)N(Cc1c[nH]cn1)CCO2 [Compound 162]	active or functionally selective agonists of the α2C receptor subtype
CCN(C(=O)OCc1cn(C)cn1)c1ccc2c(c1)N(Cc1c[nH]cn1)CCO2 [Compound 287]	active or functionally selective agonists of the α2C receptor subtype
CCN(c1ccc2c(c1)N(Cc1c[nH]cn1)CCO2)c1ccccn1 [Compound 326]	active or functionally selective agonists of the α2C receptor subtype
CNC(=O)Nc1ccc2c(n1)N(Cc1c[nH]cn1)CCO2 [Compound 51]	active or functionally selective agonists of the α2C receptor subtype
COC(=O)Nc1cc(F)c2c(c1)N(C(C#N)c1c[nH]cn1)CCO2 (stereo not drawn) [Compound 181]	active or functionally selective agonists of the α2C receptor subtype
CCCCOC(=O)N(C)c1ccc2c(c1)N(Cc1c[nH]cn1)CCO2 [Compound 256]	active or functionally selective agonists of the α2C receptor subtype
COC(=O)N(C)c1cc(F)c2c(c1)N(Cc1c[nH]cn1)CCO2 [Compound 135]	active or functionally selective agonists of the α2C receptor subtype
CCN(C(=O)CCOC)c1ccc2c(c1)N(Cc1c[nH]cn1)CCO2 [Compound 164]	active or functionally selective agonists of the α2C receptor subtype
O=[N+]([O-])c1ccc2c(c1)N(Cc1c[nH]cn1)CCCO2 [Compound 28D]	active or functionally selective agonists of the α2C receptor subtype
COC(=O)N1CCN(Cc2c[nH]cn2)c2ccccc21 [Compound 26B]	active or functionally selective agonists of the α2C receptor subtype
CCCCOC(=O)Nc1ccc2c(c1)N(Cc1c[nH]cn1)CCO2 [Compound 272]	active or functionally selective agonists of the α2C receptor subtype
O=[N+]([O-])c1ccc2c(n1)N(Cc1c[nH]cn1)CCO2 [Compound 22]	active or functionally selective agonists of the α2C receptor subtype
CNC(=O)N(C)c1ccc2c(c1)N(CCc1c[nH]cn1)CCO2 [Compound 58]	active or functionally selective agonists of the α2C receptor subtype
FC(F)(F)c1ccc2c(c1)N(Cc1c[nH]cn1)CCS2 [Compound 145]	active or functionally selective agonists of the α2C receptor subtype
O=C(Nc1ccc2c(c1)N(Cc1c[nH]cn1)CCO2)OCc1cccc(F)c1 [Compound 306]	active or functionally selective agonists of the α2C receptor subtype
COCCCOC(=O)Nc1ccc2c(c1)N(Cc1c[nH]cn1)CCO2 [Compound 246]	active or functionally selective agonists of the α2C receptor subtype
N#Cc1ccc2c(n1)N(Cc1c[nH]cn1)CCO2 [Compound 55]	active or functionally selective agonists of the α2C receptor subtype
Nc1ccc2c(c1)N(Cc1c[nH]cn1)CCS2 [Compound 24D]	active or functionally selective agonists of the α2C receptor subtype
O=C(NCc1ccccn1)Nc1ccc2c(c1)N(Cc1c[nH]cn1)CCO2 [Compound 291]	active or functionally selective agonists of the α2C receptor subtype
CONC(=O)N(C)c1ccc2c(c1)N(Cc1c[nH]cn1)CCO2 [Compound 243]	active or functionally selective agonists of the α2C receptor subtype
COCCOCC(=O)N(C)c1ccc2c(c1)N(Cc1c[nH]cn1)CCO2 [Compound 260]	active or functionally selective agonists of the α2C receptor subtype
O=C(Nc1ccc2c(c1)N(Cc1c[nH]cn1)CCO2)OCc1nccs1 [Compound 310]	active or functionally selective agonists of the α2C receptor subtype
CCOC(=O)N(CC)c1ccc2c(c1)N(Cc1c[nH]cn1)CCO2 [Compound 159]	active or functionally selective agonists of the α2C receptor subtype
